Data set [1] is described as follows: Inhibition of recombinant Mycobacterium tuberculosis MurE expressed in Pseudomonas putida KT2442 using UDPMurNAc-L-Ala-D-Glu as substrate incubated for 30 mins by HPLC analysis.
Data set [2] concerns RAW264.7. Description: Cytotoxicity against mouse RAW264.7 cells assessed as cell growth inhibition incubated for 48 hrs by resazurin staining based fluorometric analysis. It is filed as functional. The note with it: RAW264.7, 48 h. Background: The colour change of resazurin is a common sign of viable cells or microbes.
Data set [3] in a line: Selectivity index, ratio of IC50 for cytotoxicity against mouse RAW264.7 cells to MIC for antitubercular activity against Mycobacterium tuberculosis H37Rv ATCC 27294. The format is toxicity, cell-based. The note with it: for selectivity ratio: RAW264.7 cells, read-out: Selectivity Index.
Data set [4] in a line: Inhibition of recombinant Mycobacterium tuberculosis MurE expressed in Escherichia coli BL21(DE3) cells using UDP-MurNAc-dipeptide as substrate incubated for 30 mins by phosphate release based colorimetric assay. It is filed as cell-based.
The nature of data set [5]: Inhibition of Mycobacterium tuberculosis MurE expressed in Escherichia coli BL21(DE3) cells using UDP-MurNAc-dipeptide as substrate incubated for 30 mins by HPLC analysis.
In data set [6] the test system is Mycobacterium tuberculosis. The data set is described as follows: Antitubercular activity against Mycobacterium tuberculosis H37Rv ATCC 27294 assessed as bacterial growth inhibition. The format is functional.
Data set [7] can be described thus: Inhibition of Mycobacterium tuberculosis MurE expressed in Escherichia coli BL21(DE3) cells by phosphate release based colorimetric assay.
Data set [8] concerns Mycobacterium tuberculosis. The data set is described as follows: Antitubercular activity against Mycobacterium tuberculosis H37Rv ATCC 27294 assessed as bacterial growth inhibition incubated for 6 days by MTT assay. The format is functional. Conditions: H37Rv ATCC 27294, 144 h, time 6 day.
In data set [9] the test system is Mycobacterium tuberculosis. Description: Inhibition of N-terminal His-tagged Mycobacterium tuberculosis MurB expressed in Escherichia coli BL21 (DE3) cells using UDP-GlcNAc as initial substrate pretreated with compound for 15 mins followed by substrate addition measured after 30 mins in presence of ATP by phosphate release based assay relative to control. Conditions: time 45.0 min.

The test system of data set [10] is Mycobacterium tuberculosis. Description: Inhibition of N-terminal His-tagged Mycobacterium tuberculosis MurA expressed in Escherichia coli BL21 (DE3) cells using UDP-GlcNAc as initial substrate pretreated with compound for 15 mins followed by substrate addition measured after 30 mins in presence of ATP by phosphate release based assay relative to control. Conditions: time 45.0 min.

The test system of data set [11] is Mycobacterium tuberculosis. The data set is described as follows: Inhibition of N-terminal His-tagged Mycobacterium tuberculosis MurC expressed in Escherichia coli BL21 (DE3) cells using UDP-GlcNAc as initial substrate pretreated with compound for 15 mins followed by substrate addition measured after 30 mins in presence of ATP by phosphate release based assay relative to control. The note with it: time 45.0 min.

Data set [12] relates to Mycobacterium tuberculosis. Description: Inhibition of Mycobacterium tuberculosis MBP tagged MurD expressed in Escherichia coli Rosetta-gami (DE3) cells using UDP-GlcNAc as initial substrate pretreated with compound for 15 mins followed by substrate addition measured after 30 mins in presence of ATP by phosphate release based assay relative to control. The note with it: time 45.0 min.

Data set [13] is described as follows: Inhibition of N-terminal His-tagged Mycobacterium tuberculosis MurE expressed in Escherichia coli BL21 (DE3) cells using UDP-GlcNAc as initial substrate pretreated with compound for 15 mins followed by substrate addition measured after 30 mins in presence of ATP by phosphate release based assay relative to control.
The nature of data set [14]: Inhibition of Mycobacterium tuberculosis MBP tagged MurF expressed in Escherichia coli Rosetta-gami (DE3) cells using UDP-GlcNAc as initial substrate pretreated with compound for 15 mins followed by substrate addition measured after 30 mins in presence of ATP by phosphate release based assay relative to control.
The subject of data set [15] is Mycobacterium tuberculosis. Description: Antimycobacterial activity against Mycobacterium tuberculosis H37Rv ATCC 27294 assessed as inhibition of bacterial growth incubated for 2 weeks by spot culture growth inhibition assay. The format is functional. The note with it: H37Rv ATCC 27294, 336 h.
In data set [16] the test system is Mycobacterium tuberculosis. The data set is described as follows: Antitubercular activity against Mycobacterium tuberculosis H37Rv ATCC 9360 assessed as bacterial growth inhibition incubated for 2 weeks by spot culture growth inhibition assay. It is filed as functional. Conditions: H37Rv ATCC 9360, 336 h.
A short description of data set [17]: Inhibition of Mycobacterium tuberculosis MurE using UDPMurNAc-L-Ala-D-Glu as substrate incubated for 30 mins by phosphate release based colorimetric assay.
The subject of data set [18] is Mycobacterium tuberculosis. The data set is described as follows: Inhibition of Mycobacterium tuberculosis MurD at 100 uM relative to control.
Data set [19] concerns Mycobacterium tuberculosis. Description: Inhibition of Mycobacterium tuberculosis MurE at 100 uM relative to control.
Data set [20] has as its system Mycobacterium tuberculosis. Description: Inhibition of Mycobacterium tuberculosis MurF at 100 uM relative to control.
Data set [21] deals with Mycobacterium tuberculosis. The data set is described as follows: Inhibition of Mycobacterium tuberculosis MurC at 100 uM relative to control.
For data set [22], the system named is RAW264.7. The data set is described as follows: Cytotoxicity against mouse RAW264.7 cells assessed as cell growth inhibition. The format is functional, cell-based.

pIC50: −log10 of the molar value. ≈ marks a conversion by molar mass, not a printed value. Where “and” joins values, the source holds several entries; their conditions need not be identical. Equal entries are not always repeated. Bounds are passed on as bounds.

As a reminder, the pIC50 is −log10 of the IC50, conventionally taken in molar units. Regarding `Oc1ccc(Br)c2c1C(c1cccc3c1OCO3)NCC2` (configuration not stated), the pIC50 in data set [1] is greater than 3.95.
Broadly, the IC50 is the concentration needed to halve the response being measured. As usually defined, the MIC is the lowest concentration found to suppress growth. For the molecule `CCCCCCCCCCC/C=C/C1CC(=O)c2ccccc2N1C` (configuration not stated), the IC50 in the data set with RAW264.7 [2] is 24 µg/mL (≈ 70.3 µM). For the same molecule, in data set [3], the selectivity ratio was 1. In addition, the negative-log IC50 (pIC50) in data set [4] was 4.28; in [5], 3.85. Also, in [6], the MIC turned out to be 58.9 µM (≈ 20.1 µg/mL).
As for `CCCCCCCCCC#CCC1CC(=O)c2ccccc2N1CCCC` (configuration not stated), the pIC50 in [7] was 3.63.
As for `Oc1ccc(Br)c2c1C(Cc1cccc3c1OCO3)NCC2` (configuration not stated), the negative logarithm of the IC50 (pIC50) in data set [1] is greater than 3.95.
On to `COc1c(O)c2c3c(c1OC)CCN[C@H]3Cc1cc3c(cc1-2)OCO3` [listing 1 of 2 here], for which, in data set [8], the MIC was 64 µg/mL (≈ 187 µM). The half-maximal inhibitory concentration (IC50) with RAW264.7 [2] was 62 µg/mL (≈ 182 µM). Besides, the “Selectivity Index” value in [3] stood at 0.97. In addition, the negative logarithm of the IC50 (pIC50) in data set [4] is 4.17 and > 4.00.
The term inhibition denotes the change of the read-out against control, counted positive when it falls. For `CCCCCCCCC/C=C\CCCC1CC(=O)c2ccccc2N1C` (configuration not stated), the IC50 in the data set on RAW264.7 [2] was 24 µg/mL (≈ 67.5 µM). In addition, the selectivity ratio in [3] was 1. Besides, the pIC50 in [4] was 4.28; in data set [5], 3.80; in data set [13] it was 4.77; in [14], 4.59. For the same molecule, the inhibition is greater than 100% in [9], greater than 100% in data set [10], 73% in data set [11] and 85% in [12]. Also, the MIC in data set [6] is 70.7 µM (≈ 25.1 µg/mL).
For `COc1c(O)c2c3c(c1OC)CCN[C@H]3Cc1cc3c(cc1-2)OCO3` [listing 2 of 2 here], the inhibition in [9] was greater than 100%; in data set [10], 75%; in data set [11], 66%; in [12], 88%.
With `COc1ccc(Br)c2c1C(c1cccc3c1OCO3)NCC2` (configuration not stated), in data set [1], the negative-log IC50 (pIC50) is 3.78. Moreover, the MIC in [15] is 106 µM (≈ 38.4 µg/mL).
Take `C=CC(C)(C)C1C(=O)CC(c2ccccc2)OC1OC` (configuration not stated): the MIC in data set [16] turned out to be 75 µg/mL (≈ 273 µM). The pIC50 in data set [17] is 3.49.
In the case of `COC(=O)N1CCc2c(OC)c(OC)c(O)c3c2[C@@H]1Cc1cc2c(cc1-3)OCO2`, in data set [8], the minimal inhibitory concentration (MIC) is 128 µg/mL (≈ 320 µM). In addition, the IC50 in the data set with RAW264.7 [2] was determined as 67 µg/mL (≈ 168 µM). Moreover, the selectivity ratio in data set [3] came to 0.52. In data set [4], the pIC50 was 4.12 and > 4.00.
As to `CC(=O)N[C@H]1[C@H](OCc2cnnn2C[C@H]2O[C@@H](n3ccc(=O)[nH]c3=O)[C@H](O)[C@@H]2O)O[C@H](Cn2cc(C(N)=O)nn2)[C@@H](O)[C@@H]1O`, the inhibition in [18] was 23%; in data set [19], 6.1%; in data set [20], 41.8%; in [21], 12.1%.
For `CCCCCCCC/C=C/C1CC(=O)c2ccccc2N1C` (configuration not stated), the IC50 in the data set on RAW264.7 [2] is 24 µg/mL (≈ 80.1 µM). In addition, in data set [3], the selectivity ratio is 1. Further, the negative-log IC50 (pIC50) in data set [4] is 4.15; in [5], 3.68. Also, in data set [6], the MIC worked out at 84 µM (≈ 25.2 µg/mL).
As for `COc1c(O)c2c3c(c1OC)CCN[C@H]3Cc1cc3c(cc1-2)OCO3.Cl`, the minimum inhibitory concentration (MIC) in data set [8] stood at 4 µg/mL. Besides, the 50% inhibitory concentration (IC50) in the data set with RAW264.7 [2] came out at 47 µg/mL. Moreover, the “Selectivity Index” value in data set [3] worked out at 12. For the same molecule, the pIC50 in data set [4] was 4.24; in [13], 4.21; in [14], 4.34.
For the molecule `COc1c(O)c2c3c(c1OC)CCNC3Cc1cc3c(cc1-2)OCO3` (configuration not stated), the pIC50 in data set [1] was 3.09; with RAW264.7 [22], 3.45. The MIC in data set [15] came out at 84 µM (≈ 28.7 µg/mL).
On to `CC(=O)N[C@H]1[C@H](OCc2cn(C[C@@H]3O[C@H](n4ccc(=O)[nH]c4=O)[C@@H](O)[C@H]3O)nn2)O[C@H](Cn2cc(CO[C@@H]3O[C@H](CO)[C@@H](O)[C@H](O)[C@H]3NC(C)=O)nn2)[C@@H](O)[C@@H]1O`, for which the inhibition in [18] stood at 5.2%; in [19], 12.5%; in data set [20], 48.9%; in [21] it was 1%.
For the molecule `CCCCCCCCCC/C=C/C1CC(=O)c2ccccc2N1C` (configuration not stated), the IC50 with RAW264.7 [2] is 24 µg/mL (≈ 73.3 µM). Besides, the selectivity ratio in data set [3] worked out at 1. Also, the negative-log IC50 (pIC50) was 4.14 in data set [4] and 3.73 in data set [5]. Besides, the minimum inhibitory concentration (MIC) in [6] was 30.7 µM (≈ 10.1 µg/mL).
The corresponding values for `CCCCCCCC/C=C\CCCCC1CC(=O)c2ccccc2N1C` (configuration not stated) are 24 µg/mL (≈ 67.5 µM), 1, 4.44, 4.02 and 28.3 µM (≈ 10.1 µg/mL).
Regarding `CCCCCCCCCCCC#CCC1CC(=O)c2ccccc2N1CCCC` (configuration not stated), in [7], the negative-log IC50 (pIC50) is 3.70.
Consider `NNC(=O)c1ccncc1` [ISONIAZID], for which the pIC50 in data set [4] and in [1] was less than 3.00 in each case.
Take `Oc1ccc(I)c2c1C(Cc1cccc3c1OCO3)NCC2` (configuration not stated): the pIC50 in data set [1] is greater than 3.95. The MIC in data set [15] was determined as 71 µM (≈ 29.1 µg/mL).
